# Measured values: patent publication US5972955A, “Water soluble C-ring analogues of 20(S)-camptothecin” (Dr. Reddy's Research Foundation, priority 1996, dated 1999)
# Entries after “also recorded” stand apart in the source; their conditions may differ.
# Columns and labels:
# [1] = tested on: NCI's 60 human tumor cell line assay; assay: NCI 60 human tumor cell line assay, mean growth inhibition (Table 1); type: cell-based; settings: read-out: IC50 = the mean value of the minimum drug concentration of the agent required to produce 50% cell growth inhibition (GI50); mean over NCI's 60 human tumor cell lines; 48 h; Sulforhodamine B
# Protocol: (§1) Inoculates were allowed a preincubation period of 24 h at 37° C. for stabilization.
# ^a IC50 = the mean value of the minimum drug concentration (μm) of
# NCI's 60 human tumor cell line assay.
# [2] = tested on: topoisomerase I; settings: cited from earlier work
# [3] = cited from earlier work
# [4] = in vivo; cited from earlier work
# [5] = tested on: Human Serum Albumin; settings: in the presence of HSA at 37° C.; cited from earlier work
# [6] = tested on: H 23; assay: NCI in vitro growth inhibition, NSLC H 23; type: cell-based; settings: Homo sapiens, NCI-H23, read-out: 50% Growth Inhibition (GI 50); H 23, NSLC; 48 h
# Protocol: as §1
# [7] = tested on: SF 295; assay: NCI in vitro growth inhibition, CNS SF 295; type: cell-based; settings: Homo sapiens, read-out: 50% Growth Inhibition (GI 50); SF 295, CNS; 48 h
# Protocol: as §1
# [8] = tested on: T 47D; assay: NCI in vitro growth inhibition, breast T 47D; type: cell-based; settings: Homo sapiens, T47D, read-out: 50% Growth Inhibition (GI 50), 48 h
# Protocol: as §1
# [9] = tested on: H 460; assay: NCI in vitro growth inhibition, NSLC H 460; type: cell-based; settings: Homo sapiens, NCI-H460, read-out: 50% Growth Inhibition (GI 50); H 460, NSLC; 48 h
# Protocol: as §1
# [10] = tested on: 786-O; assay: NCI in vitro growth inhibition, renal 786-O; type: cell-based; settings: Homo sapiens, 786-0, read-out: 50% Growth Inhibition (GI 50), 48 h
# Protocol: as §1
# [11] = tested on: M-14; assay: NCI in vitro growth inhibition, melanoma M-14; type: cell-based; settings: Homo sapiens, M14, read-out: 50% Growth Inhibition (GI 50); M-14, melanoma; 48 h
# Protocol: as §1
# [12] = tested on: ACHN; assay: NCI in vitro growth inhibition, renal ACHN; type: cell-based; settings: Homo sapiens, read-out: 50% Growth Inhibition (GI 50), 48 h
# Protocol: as §1
# [13] = tested on: SK MEL-5; assay: NCI in vitro growth inhibition, melanoma SK MEL-5; type: cell-based; settings: Homo sapiens, read-out: 50% Growth Inhibition (GI 50); SK MEL-5, melanoma; 48 h
# Protocol: as §1
# [14] = tested on: MCF7/ADR; assay: NCI in vitro growth inhibition, breast MCF7/ADR; type: cell-based; settings: Homo sapiens, NCI/ADR-RES, read-out: 50% Growth Inhibition (GI 50), 48 h
# Protocol: as §1
# [15] = tested on: HOP 62; assay: NCI in vitro growth inhibition, NSLC HOP 62; type: cell-based; settings: Homo sapiens, read-out: 50% Growth Inhibition (GI 50); HOP 62, NSLC; 48 h
# Protocol: as §1
# [16] = tested on: MCF-7; assay: NCI in vitro growth inhibition, breast MCF-7; type: cell-based; settings: Homo sapiens, MCF7, read-out: 50% Growth Inhibition (GI 50); MCF-7, breast; 48 h
# Protocol: as §1
# [17] = tested on: H 522; assay: NCI in vitro growth inhibition, NSLC H 522; type: cell-based; settings: Homo sapiens, NCI-H522, read-out: 50% Growth Inhibition (GI 50); H 522, NSLC; 48 h
# Protocol: as §1
# [18] = tested on: LOX IMVI; assay: NCI in vitro growth inhibition, melanoma LOX IMVI; type: cell-based; settings: Homo sapiens, read-out: 50% Growth Inhibition (GI 50), 48 h
# Protocol: as §1
# [19] = tested on: UACC 62; assay: NCI in vitro growth inhibition, melanoma UACC 62; type: cell-based; settings: Homo sapiens, read-out: 50% Growth Inhibition (GI 50); UACC 62, melanoma; 48 h
# Protocol: as §1
# [20] = tested on: SR; assay: NCI in vitro growth inhibition, leukemia SR; type: cell-based; settings: Homo sapiens, read-out: 50% Growth Inhibition (GI 50), 48 h
# Protocol: as §1
# [21] = tested on: MOLT-4; assay: NCI in vitro growth inhibition, leukemia MOLT-4; type: cell-based; settings: Homo sapiens, read-out: 50% Growth Inhibition (GI 50); MOLT-4, leukemia; 48 h
# Protocol: as §1
# [22] = tested on: HL 60; assay: NCI in vitro growth inhibition, leukemia HL 60; type: cell-based; settings: Homo sapiens, read-out: 50% Growth Inhibition (GI 50); HL 60, leukemia; 48 h
# Protocol: as §1
# [23] = tested on: SF-539; assay: NCI in vitro growth inhibition, CNS SF-539; type: cell-based; settings: Homo sapiens, read-out: 50% Growth Inhibition (GI 50); SF-539, CNS; 48 h
# Protocol: as §1
# [24] = tested on: CAKI-1; assay: NCI in vitro growth inhibition, renal CAKI-1; type: cell-based; settings: Homo sapiens, read-out: 50% Growth Inhibition (GI 50); CAKI-1, renal; 48 h
# Protocol: as §1
# [25] = tested on: SF-268; assay: NCI in vitro growth inhibition, CNS SF-268; type: cell-based; settings: Homo sapiens, SF-268, 48 h, read-out: 50% Growth Inhibition (GI 50)
# Protocol: as §1
# [26] = tested on: CCRF-CEM; assay: NCI in vitro growth inhibition, leukemia CCRF-CEM; type: cell-based; settings: Homo sapiens, read-out: 50% Growth Inhibition (GI 50), 48 h
# Protocol: as §1
# [27] = compared with 20(RS)-camptothecin; cited from earlier work
structure (smiles),measurement,setting,value
"CCN(CC)CCNC1c2cc3c(OC)cccc3nc2-c2cc3c(c(=O)n21)COC(=O)[C@]3(O)CC (stereo partly shown) [9-Methoxy-5-(N,N-diethylethylenediamino) CPT]",IC50,[1],19.1 µM
"CCN(CC)CCCNC1c2cc3c(OC)cccc3nc2-c2cc3c(c(=O)n21)COC(=O)C3(O)CC (stereo not shown) [9-Methoxy-5-(N,N-diethylpropylenediamino) CPT]",IC50,[1],8.31 µM
CC[C@@]1(O)C(=O)OCc2c1cc1n(c2=O)C(NCCN2CCOCC2)c2cc3c(OC)cccc3nc2-1 (stereo partly shown) [9-Methoxy-5-morphilinoethylamino CPT],IC50,[1],> 30 µM
CC[C@@]1(O)C(=O)OCc2c1cc1n(c2=O)C(NCCN2CCCCC2)c2cc3c(OC)cccc3nc2-1 (stereo partly shown) [9-Methoxy-5-piperidinoethylamino CPT],IC50,[1],28.1 µM
CC[C@@]1(O)C(=O)OCc2c1cc1n(c2=O)C(NCCN2CCCC2)c2cc3c(OC)cccc3nc2-1 (stereo partly shown) [9-Methoxy-5-pyrrolidinoethylamino CPT],IC50,[1],31.6 µM
CC[C@@]1(O)C(=O)OCc2c1cc1n(c2=O)Cc2cc3ccccc3nc2-1 [20(S)-Camptothecin],inhibition of topoisomerase I (in words),[2],inhibitor of topoisomerise I
same,water solubility (in words),[3],low water solubility
same,side effects / toxicity (in words),[4],unacceptable side effects on humans; also recorded: high toxicity problems
CCc1c2c(nc3ccc(OC(=O)N4CCC(N5CCCCC5)CC4)cc13)-c1cc3c(c(=O)n1C2)COC(=O)[C@]3(O)CC [CPT-11],percentage (%) of lactone form at equilibrium (in words),[5],a higher percentage (%) of lactone form at equilibrium than 20(S) camptothecin of the formula 2 and 9-aminocamptothecin of the formula 5
"CC[C@@]1(O)C(=O)OCc2c1cc1n(c2=O)C(NO)c2cc3ccccc3nc2-1 (stereo partly shown) [Example 1, 5-Hydroxylaminocamptothecin]",GI50,[6],1620 nM
same,GI50,[7],250 nM
same,GI50,[8],200 nM
same,GI50,[9],480 nM
same,GI50,[10],560 nM
same,GI50,[11],370 nM
same,GI50,[12],400 nM
same,GI50,[13],3.38 µM
same,GI50,[14],2180 nM
same,GI50,[15],380 nM
same,GI50,[16],340 nM
same,GI50,[17],200 nM
same,GI50,[18],3380 nM
same,GI50,[19],370 nM
same,IC50,[1],2.39 µM
same,GI50,[20],530 nM
same,GI50,[21],180 nM
same,GI50,[22],380 nM
same,GI50,[23],1200 nM
"CC[C@@]1(O)C(=O)OCc2c1cc1n(c2=O)C(NCCO)c2cc3ccccc3nc2-1 (stereo partly shown) [Example 2, 5-(2'-hydroxyethylamino)camptothecin]",IC50,[1],> 30 µM
"CC[C@@]1(O)C(=O)OCc2c1cc1n(c2=O)C(NCCN(C)C)c2cc3ccccc3nc2-1 (stereo partly shown) [Example 4, 5-(N,N-Dimethylethylenediamino)camptothecin]",IC50,[1],> 30 µM
"CC[C@@]1(O)C(=O)OCc2c1cc1n(c2=O)C(NCc2ccccc2)c2cc3ccccc3nc2-1 (stereo partly shown) [Example 5, 5-Benzylaminocamptothecin]",IC50,[1],> 30 µM
"CC[C@@]1(O)C(=O)OCc2c1cc1n(c2=O)C(NCCCl)c2cc3ccccc3nc2-1 (stereo partly shown) [Example 6, 5-(2'-chloroethylamino)camptothecin]",IC50,[1],19 µM
"CC[C@@]1(O)C(=O)OCc2c1cc1n(c2=O)C(NCCN(C)C)c2cc3c(OC)cccc3nc2-1 (stereo partly shown) [Example 7, 5-(N,N-Dimethylethylenediamino)-9-methoxycamptothecin]",IC50,[1],9.54 µM
CC[C@@]1(O)C(=O)OCc2c1cc1n(c2=O)C(NCC(O)CO)c2cc3c(OC)cccc3nc2-1 (stereo partly shown) [Example 9],IC50,[1],6.6 µM
"CC[C@@]1(O)C(=O)OCc2c1cc1n(c2=O)C(NCCCCO)c2cc3c(OC)cccc3nc2-1 (stereo partly shown) [Example 10, 5-(4'-hydroxybutylamino)-9-methoxycamptothecin]",IC50,[1],13.1 µM
"CC[C@@]1(O)C(=O)OCc2c1cc1n(c2=O)C(NO)c2cc3cc(O)ccc3nc2-1 (stereo partly shown) [Example 11, 10-Hydroxy-5-hydroxylaminocamptothecin]",GI50,[6],4160 nM
same,GI50,[7],4890 nM
same,GI50,[24],4.26 µM
same,GI50,[8],1280 nM
same,GI50,[9],1540 nM
same,GI50,[10],2690 nM
same,GI50,[11],4260 nM
same,GI50,[12],3160 nM
same,GI50,[13],15 µM
same,GI50,[14],> 30000 nM
same,GI50,[25],2450 nM
same,GI50,[15],7410 nM
same,GI50,[16],4070 nM
same,GI50,[17],5370 nM
same,GI50,[18],2690 nM
same,GI50,[19],4160 nM
same,IC50,[1],10 µM
same,GI50,[20],100 nM
same,GI50,[21],10 nM
same,GI50,[22],1860 nM
same,GI50,[23],3160 nM
"CC[C@@]1(O)C(=O)OCc2c1cc1n(c2=O)C(NC)c2cc3ccccc3nc2-1 (stereo partly shown) [Example 12, 5-Methylaminocamptothecin]",GI50,[6],2570 nM
same,GI50,[7],1120 nM
same,GI50,[24],2.29 µM
same,GI50,[8],4670 nM
same,GI50,[10],4070 nM
same,GI50,[11],2180 nM
same,GI50,[12],970 nM
same,GI50,[13],2.51 µM
same,GI50,[14],1940 nM
same,GI50,[25],850 nM
same,GI50,[15],1730 nM
same,GI50,[16],1250 nM
same,GI50,[17],2880 nM
same,GI50,[26],230 nM
same,GI50,[18],2340 nM
same,IC50,[1],4.67 µM
same,GI50,[20],30 nM
same,GI50,[21],150 nM
same,GI50,[22],220 nM
same,GI50,[23],1810 nM
"CC[C@@]1(O)C(=O)OCc2c1cc1n(c2=O)C(NCCN2CCCC2)c2cc3ccccc3nc2-1 (stereo partly shown) [Example 15, 5-(Pyrrolidinoethylamino)camptothecin]",IC50,[1],> 30 µM
"CC[C@@]1(O)C(=O)OCc2c1cc1n(c2=O)C(NCCN2CCCCC2)c2cc3ccccc3nc2-1 (stereo partly shown) [Example 16, 5-(Piperidinoethylamino)camptothecin]",IC50,[1],23.4 µM
"CCc1c2c(nc3ccc(O)cc13)-c1cc3c(c(=O)n1C2)COC(=O)[C@]3(O)CC [SN-38, 7-ethyl-10-hydroxycamptothecin]",percentage (%) of lactone form at equilibrium (in words),[5],a higher percentage (%) of lactone form at equilibrium than 20(S) camptothecin of the formula 2 and 9-aminocamptothecin of the formula 5
CC[C@@]1(O)C(=O)OCc2c1cc1n(c2=O)Cc2cc3c(CN(C)C)c(O)ccc3nc2-1 [Topotecan],percentage (%) of lactone form at equilibrium (in words),[5],a higher percentage (%) of lactone form at equilibrium than 20(S) camptothecin of the formula 2 and 9-aminocamptothecin of the formula 5
CCc1c2c(nc3ccc(OC)cc13)-c1cc3c(c(=O)n1C2)COC(=O)[C@]3(N)CC [formula 6],in vivo antitumor activity (in words),[27],increased in vivo antitumor activity than 20(RS)-camptothecin
C=C1C(=O)OCc2c1cc1n(c2=O)Cc2c-1nc1ccc(O)cc1c2CC [formula 8],inhibition of topoisomerase I (in words),[2],potent camptothecin like inhibition of topoisomerase I activity
